Entries after “also recorded” stand apart in the source; their conditions may differ.
Tests used:
[1] = tested on: HT129 cells; experiment: p-ERK staining in EGF-induced HT129 cells; format: cell-based
Description: Cells (LNCaP, DU 145, HT 129) were grown in culture (DMEM supplemented with 10% FBS, L-Glutamine, Penicillin and Streptomycin) and exposed to vehicle, the PI3K inhibitor LY294002 (30 μM), the mTOR inhibitor, CCI-779 (20 nM) for 18 hours or the MEK inhibitor, UO126 (20 μM) combined with 100 ng/ml of EGF for 20 minutes. Cell pellets were prepared, formalin fixed and embedded in paraffin, then cut for immunohistochemical staining with phospho-AKT, -S6, -FKHR and -ERK antibodies. We performed antigen retrieval with a 10 mM sodium citrate buffer (pH 6.0) for 30 minutes in a pressure cooker. Peroxidase activity was quenched with 3% hydrogen peroxide in water. Sections were stained overnight at 4° C. with monoclonal antibodies to PTEN at 1:300 (clone 6H2.1; Cascade Bioscience, Winchester, Mass. This antibody recognizes a 99 amino acid epitope at the C-terminus of PTEN) and polyclonal phosphorylation-specific antibodies to p-AKT (Set 473), p-FKHR which recognizes phosphorylated forms of the forkhead family of transcription factors FKHR (FOXO 1), FKHRL1 (FOXO 3a) and AFX (FOXO 4), p-S6 Ribosomal protein (Set 235/236), p-ERK (Thr-202/Tyr-204) at 1:100 (Cell Signaling Technology, Beverly, Mass.). […] Following incubation, images were captured on a Nikon fluorescence microscope and then overlaid using Adobe Photoshop software. […]

[2] = tested on: LNCaP cells; experiment: Immunostaining of formalin fixed, paraffin embedded LNCaP cell pellets with phospho-specific antibodies after inhibitor treatment; format: cell-based; details: 18 hours, vs vehicle
Description: Cells (LNCaP, DU 145, HT 129) were grown in culture (DMEM supplemented with 10% FBS, L-Glutamine, Penicillin and Streptomycin) and exposed to vehicle, the PI3K inhibitor LY294002 (30 μM), the mTOR inhibitor, CCI-779 (20 nM) for 18 hours or the MEK inhibitor, UO126 (20 μM) combined with 100 ng/ml of EGF for 20 minutes. Cell pellets were prepared, formalin fixed and embedded in paraffin, then cut for immunohistochemical staining with phospho-AKT, -S6, -FKHR and -ERK antibodies. We performed antigen retrieval with a 10 mM sodium citrate buffer (pH 6.0) for 30 minutes in a pressure cooker. Peroxidase activity was quenched with 3% hydrogen peroxide in water. Sections were stained overnight at 4° C. with monoclonal antibodies to PTEN at 1:300 (clone 6H2.1; Cascade Bioscience, Winchester, Mass. This antibody recognizes a 99 amino acid epitope at the C-terminus of PTEN) and polyclonal phosphorylation-specific antibodies to p-AKT (Set 473), p-FKHR which recognizes phosphorylated forms of the forkhead family of transcription factors FKHR (FOXO 1), FKHRL1 (FOXO 3a) and AFX (FOXO 4), p-S6 Ribosomal protein (Set 235/236), p-ERK (Thr-202/Tyr-204) at 1:100 (Cell Signaling Technology, Beverly, Mass.). This was followed by application of biotinylated secondary antibodies (Vector) at 1:1000 dilution for 30 minutes and Avidin-biotin complex (Elite ABC; Vector). Negative control slides received normal mouse serum (DAKO) as the primary antibody. Diaminobenzidine tetrahydrochloride (DAB) was used as the enzyme substrate to visualize specific antibody localization for PTEN and p-AKT; Vector NovaRed (Vector) for p-FKHR, p-S6 and p-ERK. Slides were counterstained with Harris hematoxylin. For immunofluorescence assays, post fixation in paraformaldehyde, the cells were probed with Total AKT (1:50) and p-AKT (1:250); the secondary antibodies Alexa Flour anti-rabbit and anti-mouse (1:1000) [Molecular Probes, Eugene, Oreg.]. Following incubation, images were captured on a Nikon fluorescence microscope and then overlaid using Adobe Photoshop software. […]

[3] = tested on: SKMG-3 cells; details: unstimulated SKMG-3 cells, minimal growth conditions; cited from earlier work
[4] = tested on: PTEN deficient prostate cancer cell lines; details: PTEN deficient vs wild type prostate cancer cell lines; cited from earlier work
[5] = tested on: PTEN deficient prostate cancer xenografts; details: PTEN deficient vs wild type prostate cancer xenografts; cited from earlier work

Q: Which p-ERK staining ([1]; HT129 cells induced with EGF 100 ng/ml, LY294002) does the source give for `O=c1cc(N2CCOCC2)oc2c(-c3ccccc3)cccc12` [LY294002] here?
A: lack of inhibition

Q: What about the “staining intensity of p-ERK” value ([2]; LY294002 30 μM) of the same molecule?
A: no effect

Q: Which “constitutive phosphorylation of Erk” value [3] does the source give for `CNc1cc2c(Nc3cccc(Br)c3)ncnc2cn1` [PD158780] here?
A: reduces the constitutive phosphorylation

Q: What about the “constitutive phosphorylation of the receptor (EGFR)” value [3] of the same molecule?
A: reduces the constitutive phosphorylation

Q: For `CO[C@H]1C[C@@H]2CC[C@@H](C)[C@@](O)(O2)C(=O)C(=O)N2CCCC[C@H]2C(=O)O[C@H]([C@H](C)C[C@@H]2CC[C@@H](OC(=O)C(C)(CO)CO)[C@H](OC)C2)CC(=O)[C@H](C)/C=C(\C)[C@@H](O)[C@@H](OC)C(=O)[C@H](C)C[C@H](C)/C=C/C=C/C=C/1C` [CCI-779], which “sensitivity to pharmacologic inhibition of mTOR compared to wild type counterparts” value [4] is on record?
A: more sensitive

Q: What about the “sensitivity to pharmacologic inhibition of mTOR compared to wild type counterparts” value [5] of the same molecule?
A: more sensitive

Q: And the “staining intensity of p-AKT” value ([2]; CCI-779 20 nM)?
A: no effect

Q: And the “staining intensity of p-S6 (S6 phosphorylation)” value ([2]; CCI-779 20 nM)?
A: downregulation of S6 phosphorylation; also recorded: decreased staining intensity

Q: With `N#CC(=C(/N)Sc1ccccc1N)/C(C#N)=C(/N)Sc1ccccc1N` [UO-126] as the molecule, how does the p-ERK staining ([1]; HT129 cells induced with EGF 100 ng/ml for 20 minutes, UO-126 20 μM for 20 minutes) read?
A: decreased staining; also recorded: reduced

— US20080299589A1, “Methods and Materials for Examining the P13k/Akt Pathway in Gliomas and Prostate Cancers” (The Regents of the University of California, priority 2003, published 2008)
